Source: the supplement of paper PMC10307832

Legend:
Experiment in all cases: relative viability (nuclei count vs DMSO), 5 days (fraction); higher = more cells survive
[1] = compound: Cn1cncc1[C@@](N)(c1ccc(Cl)cc1)c1ccc2c(c1)c(-c1cccc(Cl)c1)cc(=O)n2C [Tipifarnib] + CC(C)C[C@H](NC(=O)[C@H](Cc1ccccc1)NC(=O)c1cnccn1)B(O)O [Bortezomib] (partner 0.002 µM)
How it was run: (§1)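 After 5 days of treatment, lung cancer cells in 1536-well plates were fixed and stained in a single step (final 0.05% Triton X-100, 1% formaldehyde, 1 ug/ml Hoechst) and their nuclei counted on 4× images. Treatment had been applied by pin tool the day after seeding as one drug alone or as a fixed anchor-drug dose with five library-drug doses (not always all listed) in √10 steps. Relative viability is the nuclei count of treated wells divided by that of vehicle wells, and values are medians of duplicate plates.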

[2] = compound: Cn1cncc1[C@@](N)(c1ccc(Cl)cc1)c1ccc2c(c1)c(-c1cccc(Cl)c1)cc(=O)n2C [Tipifarnib] + CS(=O)(=O)CCNCc1ccc(-c2ccc3ncnc(Nc4ccc(OCc5cccc(F)c5)c(Cl)c4)c3c2)o1 [Lapatinib] (partner 2 µM)
How it was run: as §1

[3] = compound: Cn1cncc1[C@@](N)(c1ccc(Cl)cc1)c1ccc2c(c1)c(-c1cccc(Cl)c1)cc(=O)n2C [Tipifarnib] + NC(=O)Nc1cc(-c2cccc(F)c2)sc1C(=O)N[C@H]1CCCNC1 [AZD7762] (partner 0.2 µM)
How it was run: as §1

[4] = compound: Cn1cncc1[C@@](N)(c1ccc(Cl)cc1)c1ccc2c(c1)c(-c1cccc(Cl)c1)cc(=O)n2C [Tipifarnib] + Nc1ncn([C@H]2C[C@H](O)[C@@H](CO)O2)c(=O)n1 [Decitabine] (partner 2 µM)
How it was run: as §1

Row | Cell Line | relative viability ([1]; first compound 0.01 µM) | relative viability ([1]; first compound 0.03162 µM) | relative viability ([1]; first compound 0.1 µM) | relative viability ([1]; first compound 0.3162 µM) | relative viability ([1]; first compound 1 µM) | relative viability ([2]; first compound 0.01 µM) | relative viability ([2]; first compound 0.03162 µM) | relative viability ([2]; first compound 0.1 µM) | relative viability ([2]; first compound 0.3162 µM) | relative viability ([2]; first compound 1 µM) | relative viability ([3]; first compound 0.01 µM) | relative viability ([3]; first compound 0.03162 µM) | relative viability ([3]; first compound 0.1 µM) | relative viability ([3]; first compound 0.3162 µM) | relative viability ([3]; first compound 1 µM) | relative viability ([4]; first compound 0.01 µM) | relative viability ([4]; first compound 0.03162 µM) | relative viability ([4]; first compound 0.1 µM) | relative viability ([4]; first compound 0.3162 µM) | relative viability ([4]; first compound 1 µM)
1 | NCI-H322M | 1.27 | 1.32 | 1.18 | 1.05 | 0.947 | 0.637 | 0.662 | 0.622 | 0.688 | 0.505 | 0.561 | 0.591 | 0.553 | 0.474 | 0.442 | 0.713 | 0.751 | 0.631 | 0.701 | 0.666
2 | NCI-H460 | 0.957 | 0.605 | 0.369 | 0.248 | 0.036 | 0.987 | 0.431 | 0.285 | 0.195 | 0.0315 | 0.575 | 0.618 | 0.282 | 0.237 | 0.118 | 0.479 | 0.33 | 0.283 | 0.15 | 0.0821
3 | NCI-H596 | 1.05 | 1.12 | 1.17 | 0.913 | 0.699 | 0.99 | 1.09 | 1.04 | 0.868 | 0.608 | 1.1 | 1.09 | 1.08 | 0.822 | 0.776 | 0.96 | 0.918 | 0.963 | 0.558 | 0.824
4 | NCI-H647 | 0.911 | 0.59 | 0.678 | 0.589 | 0.273 | 1.17 | 0.792 | 0.693 | 0.668 | 0.176 | 0.405 | 0.48 | 0.308 | 0.116 | 0.0944 | 0.453 | 0.305 | 0.261 | 0.185 | 0.186
5 | NCI-H650 | 0.781 | 0.36 | 0.697 | 0.539 | 0.346 | 0.719 | 0.837 | 0.599 | 0.434 | 0.345 | 1.39 | 1.17 | 0.77 | 0.667 | 0.429 | 0.352 | 0.33 | 0.341 | 0.251 | 0.305
6 | NCI-H727 | 0.893 | 0.802 | 0.856 | 0.656 | 0.607 | 1.01 | 0.843 | 0.755 | 0.578 | 0.607 | 0.613 | 0.608 | 0.519 | 0.504 | 0.571 | 0.862 | 0.811 | 0.855 | 0.765 | 0.851
7 | NCI-H838 | 0.713 | 0.733 | 0.589 | 0.439 | 0.41 | 0.965 | 0.952 | 0.644 | 0.615 | 0.393 | 1.01 | 0.965 | 0.905 | 0.836 | 0.851 | 0.466 | 0.452 | 0.46 | 0.413 | 0.38
8 | NCI-H1355 | 1.17 | 0.992 | 0.806 | 0.722 | 0.813 | 0.999 | 0.871 | 0.746 | 0.67 | 0.516 | 0.833 | 0.707 | 0.517 | 0.473 | 0.478 | 0.372 | 0.397 | 0.328 | 0.317 | 0.321
9 | NCI-H1437 | 0.54 | 0.554 | 0.403 | 0.41 | 0.306 | 0.873 | 0.864 | 0.738 | 0.727 | 0.248 | 1.12 | 1.14 | 1.1 | 1.06 | 1.11 | 0.597 | 0.618 | 0.613 | 0.635 | 0.593
10 | NCI-H1651 | 0.94 | 0.916 | 1.04 | 0.842 | 0.78 | 0.931 | 0.799 | 0.919 | 0.85 | 0.426 | 0.536 | 0.467 | 0.524 | 0.44 | 0.363 | 0.667 | 0.597 | 0.658 | 0.761 | 0.421
11 | NCI-H1666 | 0.801 | 0.793 | 0.671 | 0.614 | 0.442 | 0.666 | 0.61 | 0.591 | 0.474 | 0.388 | 0.892 | 0.807 | 0.794 | 0.661 | 0.554 | 0.698 | 0.739 | 0.768 | 0.598 | 0.571
12 | NCI-H1734 | 0.953 | 0.764 | 0.724 | 0.502 | 0.385 | 1.18 | 0.995 | 0.682 | 0.618 | 0.431 | 0.537 | 0.46 | 0.403 | 0.352 | 0.257 | 0.565 | 0.485 | 0.557 | 0.434 | 0.369
13 | NCI-H1755 | 0.987 | 0.835 | 0.848 | 0.821 | 0.626 | 1.03 | 0.988 | 0.981 | 0.906 | 0.507 | 0.411 | 0.453 | 0.416 | 0.365 | 0.395 | 0.726 | 0.761 | 0.739 | 0.746 | 0.741
14 | NCI-H1792 | 0.967 | 0.877 | 0.661 | 0.621 | 0.432 | 0.942 | 0.941 | 0.782 | 0.574 | 0.298 | 0.722 | 0.417 | 0.373 | 0.237 | 0.173 | 0.446 | 0.439 | 0.308 | 0.28 | 0.272
15 | NCI-H1915 | 0.844 | 0.466 | 0.54 | 0.418 | 0.286 | 0.927 | 0.67 | 0.56 | 0.416 | 0.282 | 0.643 | 0.583 | 0.398 | 0.332 | 0.319 | 0.272 | 0.245 | 0.284 | 0.232 | 0.257
16 | NCI-H1975 | 0.49 | 0.283 | 0.311 | 0.214 | 0.2 | 1.01 | 0.933 | 0.933 | 0.631 | 0.65 | 0.89 | 0.9 | 0.688 | 0.623 | 0.616 | 0.425 | 0.419 | 0.37 | 0.317 | 0.317
